Experimental data: ChEMBL document CHEMBL1909608, “Actinopolysporins A-C and tubercidin as a Pdcd4 stabilizer from the halophilic actinomycete Actinopolyspora erythraea YIM 90600” (J Nat Prod, 2011)
Active and inactive are the calls of the source. The calls are words filed in the database; no cut-off is given here.

Experiments:
Format in all cases: cell-based
[1] = test system: HEK293; assay: Cytotoxicity against human HEK293 cells
[2] = biological target: T1, Programmed cell death protein 4 (Homo sapiens) (UniProt Q53EL6); assay: Stabilization of Pdcd4 expressed in TPA-stimulated human HEK293 cells at 2.5 uM by luciferase reporter assay
T1 sequence (whole entry): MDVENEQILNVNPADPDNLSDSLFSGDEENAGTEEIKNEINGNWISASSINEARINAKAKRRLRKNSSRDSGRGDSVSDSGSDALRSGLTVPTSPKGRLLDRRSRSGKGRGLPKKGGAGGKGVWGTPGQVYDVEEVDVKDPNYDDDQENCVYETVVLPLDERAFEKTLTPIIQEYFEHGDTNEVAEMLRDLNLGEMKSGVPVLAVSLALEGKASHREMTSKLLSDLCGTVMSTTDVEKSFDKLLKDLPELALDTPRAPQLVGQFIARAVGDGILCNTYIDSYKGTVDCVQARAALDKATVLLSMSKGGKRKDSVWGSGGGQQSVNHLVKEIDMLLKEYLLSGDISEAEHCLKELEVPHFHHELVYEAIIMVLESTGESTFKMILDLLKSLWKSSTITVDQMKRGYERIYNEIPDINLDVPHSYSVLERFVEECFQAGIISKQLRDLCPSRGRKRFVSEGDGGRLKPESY

[3] = biological target: T1, Programmed cell death protein 4 (Homo sapiens); assay: Stabilization of Pdcd4 expressed in human HEK293 cells assessed as inhibition of TPA-induced degradation by luciferase reporter assay

Compound	Activity [1] [µM]	max activation [2] [%]	inhibition [3]
Nc1ncnc2c1ccn2[C@@H]1O[C@H](CO)[C@@H](O)[C@H]1O [TUBERCIDIN]	> 2.5	94.2	
COC(=O)/C(C)=C/C(C)CC(C)CC(C)(O)C(C)O (stereo not given)			inactive
CCC(=O)/C(C)=C/C(C)CC(C)CC(C)(O)CC (stereo not given)			inactive
COC(=O)/C(C)=C/C(C)CC(C)CC(C)(O)CC(C)O (stereo not given)			inactive
